Laboratory results: patent US20170202835A1, “OSMOLYTE-CONTAINING PREPARATION FOR THE TREATMENT OF DRY MUCOUS MEMBRANES” (Bitop AG, priority 2007, published 2017)
“Also recorded” adds a separate entry of the source.

test system: TR146 cells; experiment: Mucus production in TR146 cells (PAS staining, image analysis); assay type: cell-based, human; conditions: 0.5% FCS, 16 h incubation
Method: To evaluate possible effects of compatible solutes on mucus production an in vitro cell culture model was used. For this purpose a mucus producing cell line, TR146, served as a model for the situation in the human mouth. The cells were incubated with ectoine and other substances. After treatment the cells were stained with PAS (Periodic Acid-Schiff) to determine the mucus content.
TR146 cells were seeded and grown on glass plates in 96 wells until they reached nearly confluence. The glass plates were coated with Poly-L-Lysine to ensure a good attachment of the cells. After reaching confluence the cells were set to 0.5% FCS (Fetal Calf Serum) and were incubated with ectoine, glucosylglycerole and prostaglandine for 16 h, whereas the control sample was not treated further. Prostaglandine is known in the literature to stimulate mucus production (Tani et al., Biol Pharm Bull 25 (1), 2002, 14-18).
After the incubation time, cells were stained with a PAS staining kit from Sigma Aldrich to stain the whole mucus on top of the cells. For analysis pictures were taken with the Dino Eye Capture Camera. The pictures were afterwards analyzed with Image J software.
These areas were marked with the Image software Image J and the pixel area was determined. The average results were given as percentage relative to the control (=100%) (FIG. 2).

SMILES	Mucus production (PAS-stained pixel area relative to control = 100%)
CC1=NC(C(=O)O)CCN1 (stereo not drawn) [Ectoine, 1,4,5,6-tetrahydro-2-methyl-pyrimidine-4-carboxylic acid]	showed a tendency to stimulate the mucus production; also recorded: did so, too, although to a lesser extent
CCCCC[C@H](O)/C=C/[C@H]1[C@H](O)CC(=O)[C@@H]1C/C=C\CCCC(=O)O [Prostaglandin E2, reference compound]	showed an induction of mucus production
OCC(CO)O[C@H]1O[C@H](CO)[C@@H](O)[C@H](O)[C@H]1O [glucosylglycerol]	showed a tendency to stimulate the mucus production; also recorded: did so, too, although to a lesser extent
